From ChEMBL document CHEMBL1201862, “PubChem BioAssay data set” (2004)
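These data come from cells grown in 96-well plates and exposed to compound for 48 hours at five concentrations. GI50 is the concentration that inhibits growth by half.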 Activity calls are given as the source filed them. Rule as the data show it: active = GI50 up to about 1.1 µM and inactive = higher.

Columns and labels:
Assay in all cases: NCI-60 cell line screen, 48 h
RXF 393 = test system: RXF 393
HCT-15 = test system: HCT-15
UACC-257 = test system: UACC-257
OVCAR-4 = test system: OVCAR-4
CCRF-CEM = test system: CCRF-CEM
NCI-H23 = test system: NCI-H23
HOP-18 = test system: HOP-18
M19-MEL = test system: M19-MEL
A498 = test system: A498
DLD-1 = test system: DLD-1
KM12 = test system: KM12
TK-10 = test system: TK-10
SK-MEL-28 = test system: SK-MEL-28
IGROV-1 = test system: IGROV-1
786-0 = test system: 786-0
SR = test system: SR
SK-OV-3 = test system: SK-OV-3
SF-295 = test system: SF-295
UO-31 = test system: UO-31
SK-MEL-5 = test system: SK-MEL-5
SW-620 = test system: SW-620
ACHN = test system: ACHN
LXFL 529 = test system: LXFL 529
HT-29 = test system: HT-29
SF-539 = test system: SF-539
HCC 2998 = test system: HCC 2998
NCI-H460 = test system: NCI-H460
XF498 = test system: XF498
K562 = test system: K562
LOX IMVI = test system: LOX IMVI
U-251 = test system: U-251
DMS-114 = test system: DMS-114
OVCAR-5 = test system: OVCAR-5
CAKI-1 = test system: CAKI-1
SNB-19 = test system: SNB-19
RPMI-8226 = test system: RPMI-8226
SNB-78 = test system: SNB-78
Malme-3M = test system: Malme-3M
KM-20L2 = test system: KM-20L2
OVCAR-3 = test system: OVCAR-3
SK-MEL-2 = test system: SK-MEL-2
OVCAR-8 = test system: OVCAR-8
HCT-116 = test system: HCT-116
HOP-62 = test system: HOP-62
UACC-62 = test system: UACC-62
HOP-92 = test system: HOP-92
SF-268 = test system: SF-268
DMS-273 = test system: DMS-273
A549 = test system: A549
SN12C = test system: SN12C
SNB-75 = test system: SNB-75
MOLT-4 = test system: MOLT-4
COLO 205 = test system: COLO 205
HL-60 = test system: HL-60
M14 = test system: M14
EKVX = test system: EKVX
NCI-H522 = test system: NCI-H522
NCI-H226 = test system: NCI-H226

SMILES: Cc1nn(C)cc1P(=S)(c1ccccc1)c1ccccc1
- GI50 (RXF 393): > 100 µM (inactive)
- GI50 (HCT-15): 32.4 µM
- GI50 (UACC-257): 97.1 µM (inactive)
- GI50 (OVCAR-4): > 100 µM (inactive)
- GI50 (CCRF-CEM): 31.8 µM (inactive)
- GI50 (NCI-H23): > 100 µM (inactive)
- GI50 (HOP-18): > 100 µM (inactive)
- GI50 (M19-MEL): 59.3 µM (inactive)
- GI50 (A498): > 100 µM (inactive)
- GI50 (DLD-1): 51.4 µM (inactive)
- GI50 (KM12): 36.4 µM (inactive)
- GI50 (TK-10): > 100 µM (inactive)
- GI50 (SK-MEL-28): > 100 µM (inactive)
- GI50 (IGROV-1): > 100 µM (inactive)
- GI50 (786-0): > 100 µM (inactive)
- GI50 (SR): 22.5 µM (inactive)
- GI50 (SK-OV-3): 24.8 µM (inactive)
- GI50 (SF-295): 67.5 µM (inactive)
- GI50 (UO-31): > 100 µM (inactive)
- GI50 (SK-MEL-5): > 100 µM (inactive)
- GI50 (SW-620): 51.9 µM (inactive)
- GI50 (ACHN): 61.7 µM (inactive)
- GI50 (LXFL 529): 51.3 µM (inactive)
- GI50 (HT-29): 50.4 µM (inactive)
- GI50 (SF-539): > 100 µM (inactive)
- GI50 (HCC 2998): > 100 µM (inactive)
- GI50 (NCI-H460): 40.5 µM (inactive)
- GI50 (XF498): > 100 µM (inactive)
- GI50 (K562): 20.6 µM (inactive)
- GI50 (LOX IMVI): 30.3 µM (inactive)
- GI50 (U-251): 92.5 µM (inactive)
- GI50 (DMS-114): 30.9 µM (inactive)
- GI50 (OVCAR-5): > 100 µM (inactive)
- GI50 (CAKI-1): 95.3 µM (inactive)
- GI50 (SNB-19): > 100 µM (inactive)
- GI50 (RPMI-8226): 28.7 µM (inactive)
- GI50 (SNB-78): 51.2 µM (inactive)
- GI50 (Malme-3M): 58.6 µM (inactive)
- GI50 (KM-20L2): > 100 µM (inactive)
- GI50 (OVCAR-3): > 100 µM (inactive)
- GI50 (SK-MEL-2): > 100 µM (inactive)
- GI50 (OVCAR-8): 54.3 µM (inactive)
- GI50 (HCT-116): 31.8 µM (inactive)
- GI50 (HOP-62): 70.3 µM (inactive)
- GI50 (UACC-62): 47 µM (inactive)
- GI50 (HOP-92): 35.2 µM (inactive)
- GI50 (SF-268): 81.8 µM (inactive)
- GI50 (DMS-273): 31.6 µM (inactive)
- GI50 (A549): 55 µM (inactive)
- GI50 (SN12C): > 100 µM (inactive)
- GI50 (SNB-75): 24.4 µM (inactive)
- GI50 (MOLT-4): 30.3 µM (inactive)
- GI50 (COLO 205): 48.5 µM (inactive)
- GI50 (HL-60): 18.6 µM (inactive)
- GI50 (M14): 71.6 µM (inactive)
- GI50 (EKVX): > 100 µM (inactive)

SMILES: Cc1cc2c(cc1CO)N1Cc3cc(C)c(CO)cc3N(C2)C1
- GI50 (RXF 393): > 100 µM (inactive)
- GI50 (OVCAR-4): > 100 µM (inactive)
- GI50 (CCRF-CEM): > 100 µM (inactive)
- GI50 (NCI-H23): > 100 µM (inactive)
- GI50 (HOP-18): > 100 µM (inactive)
- GI50 (M19-MEL): > 100 µM (inactive)
- GI50 (DLD-1): > 100 µM (inactive)
- GI50 (KM12): > 100 µM (inactive)
- GI50 (TK-10): > 100 µM (inactive)
- GI50 (SK-MEL-28): > 100 µM (inactive)
- GI50 (IGROV-1): > 100 µM (inactive)
- GI50 (786-0): > 100 µM (inactive)
- GI50 (SK-OV-3): > 100 µM (inactive)
- GI50 (SF-295): > 100 µM (inactive)
- GI50 (SK-MEL-5): > 100 µM (inactive)
- GI50 (SW-620): > 100 µM (inactive)
- GI50 (LXFL 529): > 100 µM (inactive)
- GI50 (HT-29): > 100 µM (inactive)
- GI50 (SF-539): > 100 µM (inactive)
- GI50 (HCC 2998): > 100 µM (inactive)
- GI50 (NCI-H522): > 100 µM (inactive)
- GI50 (NCI-H460): > 100 µM (inactive)
- GI50 (XF498): > 100 µM (inactive)
- GI50 (K562): > 100 µM (inactive)
- GI50 (LOX IMVI): > 100 µM (inactive)
- GI50 (U-251): > 100 µM (inactive)
- GI50 (DMS-114): > 100 µM (inactive)
- GI50 (SNB-19): > 100 µM (inactive)
- GI50 (RPMI-8226): > 100 µM (inactive)
- GI50 (SNB-78): > 100 µM (inactive)
- GI50 (KM-20L2): > 100 µM (inactive)
- GI50 (OVCAR-3): > 100 µM (inactive)
- GI50 (OVCAR-8): > 100 µM (inactive)
- GI50 (HCT-116): > 100 µM (inactive)
- GI50 (HOP-62): > 100 µM (inactive)
- GI50 (UACC-62): > 100 µM (inactive)
- GI50 (NCI-H226): > 100 µM (inactive)
- GI50 (SF-268): > 100 µM (inactive)
- GI50 (DMS-273): > 100 µM (inactive)
- GI50 (A549): > 100 µM (inactive)
- GI50 (SN12C): > 100 µM (inactive)
- GI50 (SNB-75): > 100 µM (inactive)
- GI50 (MOLT-4): > 100 µM (inactive)
- GI50 (COLO 205): > 100 µM (inactive)
- GI50 (HL-60): > 100 µM (inactive)
- GI50 (M14): > 100 µM (inactive)
- GI50 (EKVX): > 100 µM (inactive)
